26 compounds from ChEMBL document CHEMBL1201862, “PubChem BioAssay data set” (2004) can be followed below.

Active and inactive are the calls of the source. Bounds are passed on as bounds.

For assay [1], the target named is T1, Polyadenylate-binding protein 1 (Homo sapiens, UniProt P11940). Kind of assay: PABP1 MLLE–PAM2 binding inhibitor potency, dose response, biochemical, fluorescence polarization, FITC-PAM2 peptide (AID 602259). It is filed as functional. The following applies: read-out: IC50_Mean.
T1 sequence (P11940 whole entry): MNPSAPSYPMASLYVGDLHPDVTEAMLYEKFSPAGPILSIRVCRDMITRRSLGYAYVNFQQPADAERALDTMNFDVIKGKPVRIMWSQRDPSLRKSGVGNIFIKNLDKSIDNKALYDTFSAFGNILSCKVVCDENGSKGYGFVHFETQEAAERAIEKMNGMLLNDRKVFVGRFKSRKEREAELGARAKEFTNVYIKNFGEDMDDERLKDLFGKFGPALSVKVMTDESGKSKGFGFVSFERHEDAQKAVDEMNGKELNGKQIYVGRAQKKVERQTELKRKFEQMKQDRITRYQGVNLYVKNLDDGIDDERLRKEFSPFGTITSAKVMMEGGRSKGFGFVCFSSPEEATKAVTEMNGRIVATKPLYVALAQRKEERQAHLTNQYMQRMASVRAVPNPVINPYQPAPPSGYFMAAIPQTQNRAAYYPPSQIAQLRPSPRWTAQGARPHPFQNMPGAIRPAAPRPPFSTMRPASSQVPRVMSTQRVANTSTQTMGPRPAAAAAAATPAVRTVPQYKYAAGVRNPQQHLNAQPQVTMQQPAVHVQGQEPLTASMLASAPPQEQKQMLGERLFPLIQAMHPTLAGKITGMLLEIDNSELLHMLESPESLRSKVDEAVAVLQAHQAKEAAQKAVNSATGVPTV
For assay [2], the target named is T1, Polyadenylate-binding protein 1. Kind of assay: PABP1 MLLE–PAM2 interaction inhibitors, dose response, miRNA deadenylation inhibitor project, biochemical, fluorescence polarization, Cy5-PAM2 peptide, secondary (AID 602260). Type of assay: functional. The following applies: read-out: IC50_Mean.
The target in assay [3] is T2, Oxysterols receptor LXR-beta (Homo sapiens, UniProt P55055).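 Note: agonist activity at LXR measured by a cell-based luminescence readout across a dose range, run as a counterscreen for daf-12 agonists; HEK293 cells with Gal4-LXR fusion and GAL4-driven luciferase reporter; potency for activation of Gal4-LXR reporter so compounds are agonists.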
T2 sequence (P55055 whole entry): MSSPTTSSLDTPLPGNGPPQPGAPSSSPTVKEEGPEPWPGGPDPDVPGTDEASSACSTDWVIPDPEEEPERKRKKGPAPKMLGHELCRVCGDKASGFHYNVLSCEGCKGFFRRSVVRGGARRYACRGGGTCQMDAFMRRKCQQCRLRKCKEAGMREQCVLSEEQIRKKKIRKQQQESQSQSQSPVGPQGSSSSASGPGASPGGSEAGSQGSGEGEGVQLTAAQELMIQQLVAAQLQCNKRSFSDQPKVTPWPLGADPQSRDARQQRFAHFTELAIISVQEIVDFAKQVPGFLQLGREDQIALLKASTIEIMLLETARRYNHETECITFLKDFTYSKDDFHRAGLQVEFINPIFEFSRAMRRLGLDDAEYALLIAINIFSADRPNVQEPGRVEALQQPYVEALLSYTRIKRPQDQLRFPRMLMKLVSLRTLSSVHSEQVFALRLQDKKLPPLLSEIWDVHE
It is filed as functional, cell-based.

The nature of assay [4]: inhibitors of HIV Env-driven cell fusion, dose response, cherry-pick (AID 652057). It is filed as functional, cell-based.
Assay [5] is described as follows: inhibitors of clade B AD8 Env fusion, dose response, cell-based, cherry-pick (AID 652062).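 Note: luciferase signal from cell-cell fusion driven by HIV-1 clade B AD8 Env; potency is for inhibitors of fusion seen as a drop in luminescence.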 Type of assay: functional.
Assay [6] can be described thus: ZM109 Env clade C HIV-1 fusion inhibitors, dose response, HeLa effector, CEM target cells, luciferase, cherry-pick (AID 652058). Type of assay: functional, cell-based.
A short description of assay [7]: off-target signal loss in HeLa-CEM21 co-culture – HeLa F-luc CTL cells, cherry-picked, counter-screen for HIV-1 Env fusion inhibitor project, dose response (AID 652040).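 Note: potency for signal decrease marking cytotoxic or nonspecific inhibition.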 Type of assay: functional, cell-based.
Assay [8] has as its system H4. Briefly: Luminescence Cell-Based Dose Response HTS to Identify Activators of 5'UTR Stem-Loop Driven Prion Protein mRNA Translation in H4 Neuroglioblastoma Cells. [Related pubchem assays: 1829 (Project Summary), 1814 (Primary HTS)]. It is filed as functional. Particulars: Homo sapiens.
Assay [9] can be described thus: Luminescence Cell-Based Dose Retest to Confirm Inhibitors of Cancer Stem Cells. [Related pubchem assays (depositor defined):AID2717, AID2721]. The following applies: Homo sapiens. Type of assay: functional.
The subject of assay [10] is Vero. Kind of assay: cells. It is filed as functional. Particulars: Chlorocebus sabaeus.
For assay [11], the target named is T3, Apoptotic protease-activating factor 1 (Homo sapiens, UniProt O14727).
T3 sequence (O14727 whole entry): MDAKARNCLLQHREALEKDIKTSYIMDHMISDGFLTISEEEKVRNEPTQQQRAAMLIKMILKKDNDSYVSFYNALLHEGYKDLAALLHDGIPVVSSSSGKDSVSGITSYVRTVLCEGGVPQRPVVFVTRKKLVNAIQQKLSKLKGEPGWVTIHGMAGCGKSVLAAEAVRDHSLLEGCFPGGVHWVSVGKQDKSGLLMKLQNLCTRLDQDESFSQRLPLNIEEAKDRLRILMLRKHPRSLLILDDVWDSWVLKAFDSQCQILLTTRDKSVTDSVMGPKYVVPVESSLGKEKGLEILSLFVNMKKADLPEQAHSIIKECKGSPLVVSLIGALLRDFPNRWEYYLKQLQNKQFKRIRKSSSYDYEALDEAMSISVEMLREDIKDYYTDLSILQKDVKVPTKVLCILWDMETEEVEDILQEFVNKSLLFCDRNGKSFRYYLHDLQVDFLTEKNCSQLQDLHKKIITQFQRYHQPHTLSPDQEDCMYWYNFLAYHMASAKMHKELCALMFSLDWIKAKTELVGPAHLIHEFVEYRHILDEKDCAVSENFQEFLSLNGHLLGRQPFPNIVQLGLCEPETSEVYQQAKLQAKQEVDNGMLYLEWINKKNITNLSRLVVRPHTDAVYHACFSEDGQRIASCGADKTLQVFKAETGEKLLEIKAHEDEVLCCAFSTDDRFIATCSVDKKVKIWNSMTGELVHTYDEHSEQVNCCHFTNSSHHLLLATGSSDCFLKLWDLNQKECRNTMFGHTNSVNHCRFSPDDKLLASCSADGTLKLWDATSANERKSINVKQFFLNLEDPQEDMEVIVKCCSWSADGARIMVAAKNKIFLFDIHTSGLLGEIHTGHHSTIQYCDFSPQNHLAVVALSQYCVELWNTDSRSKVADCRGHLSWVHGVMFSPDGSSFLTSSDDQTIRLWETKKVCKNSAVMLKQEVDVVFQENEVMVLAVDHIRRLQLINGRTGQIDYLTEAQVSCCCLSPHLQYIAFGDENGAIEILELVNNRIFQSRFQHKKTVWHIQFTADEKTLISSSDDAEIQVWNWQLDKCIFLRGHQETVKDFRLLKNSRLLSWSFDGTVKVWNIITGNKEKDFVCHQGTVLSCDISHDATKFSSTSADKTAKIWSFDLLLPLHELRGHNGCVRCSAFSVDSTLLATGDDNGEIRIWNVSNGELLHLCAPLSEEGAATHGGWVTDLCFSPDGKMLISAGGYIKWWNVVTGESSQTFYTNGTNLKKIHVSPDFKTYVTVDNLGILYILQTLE
Type of assay: functional.

A short description of assay [12]: inhibitors of intracellular T. cruzi replication, confirmation, NIH3T3 host cells, beta-gal luminescence (AID 2044).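 Note: intracellular parasites grown in NIH/3T3 mouse fibroblasts as host cells; luminescent beta-galactosidase reporter signal from transgenic T. cruzi replicating inside host cells; inhibitors lower the luminescence signal.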 It is filed as functional, cell-based.
Assay [13] is described as follows: cytotoxicity toward NIH3T3 fibroblasts, dose response, counter-screen, cell-based, ATP luminescence, mouse fibroblasts (AID 2010).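 Note: cells exposed to compound for about 90 hours before reading.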 Type of assay: functional.
The test system of assay [14] is Streptococcus. Briefly: Group A Streptococcus viability loss, dose response, counter-screen for streptokinase expression inhibitor project, luminescence, BacTiterGlo (AID 1915).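 Note: potency for reduction of bacterial viability or growth.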 Type of assay: functional, organism-based.
The target in assay [15] is T4, Streptokinase A (Streptococcus pyogenes serotype M1, UniProt P10520).
T4 sequence (P10520 whole entry): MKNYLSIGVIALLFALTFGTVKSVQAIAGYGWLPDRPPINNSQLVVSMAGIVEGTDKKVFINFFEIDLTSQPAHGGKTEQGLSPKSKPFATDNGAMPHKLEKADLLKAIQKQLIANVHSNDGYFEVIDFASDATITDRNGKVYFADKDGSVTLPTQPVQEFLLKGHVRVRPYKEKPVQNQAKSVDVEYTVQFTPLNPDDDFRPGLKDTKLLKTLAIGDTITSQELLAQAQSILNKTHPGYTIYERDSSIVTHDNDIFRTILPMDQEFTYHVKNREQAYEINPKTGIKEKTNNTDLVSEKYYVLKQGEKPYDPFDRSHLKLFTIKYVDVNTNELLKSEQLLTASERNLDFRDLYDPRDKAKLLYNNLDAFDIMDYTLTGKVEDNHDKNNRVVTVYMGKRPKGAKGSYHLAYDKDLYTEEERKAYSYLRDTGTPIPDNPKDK
Briefly: S. pyogenes streptokinase expression inhibitors, potency, dose response, plasminogen activation absorbance, OD405 (AID 1914).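 Note: secreted streptokinase activity via plasminogen activation per viability signal from cell pellet.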 It is filed as functional, Streptococcus pyogenes M1 GAS.

Assay [16] relates to Streptococcus sp. 'group A'. Kind of assay: growth inhibition of control SK(-) GAS strain, dose response, counter-screen for streptokinase expression inhibitor project, luminescence, kanamycin, BacTiterGlo, confirmation (AID 1900). It is filed as functional, organism-based.
Assay [17] deals with T5, Fatty acid synthase (Homo sapiens, UniProt P49327). Briefly: FAS thioesterase domain inhibitors, dose response, biochemical, kinetic fluorescence intensity (AID 624326).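 Note: rate of fluorescence rise from hydrolysis of a fluorogenic O-methyl fluorescein ester substrate.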 It is filed as functional.
T5 sequence (P49327 whole entry, the tested form may be a part): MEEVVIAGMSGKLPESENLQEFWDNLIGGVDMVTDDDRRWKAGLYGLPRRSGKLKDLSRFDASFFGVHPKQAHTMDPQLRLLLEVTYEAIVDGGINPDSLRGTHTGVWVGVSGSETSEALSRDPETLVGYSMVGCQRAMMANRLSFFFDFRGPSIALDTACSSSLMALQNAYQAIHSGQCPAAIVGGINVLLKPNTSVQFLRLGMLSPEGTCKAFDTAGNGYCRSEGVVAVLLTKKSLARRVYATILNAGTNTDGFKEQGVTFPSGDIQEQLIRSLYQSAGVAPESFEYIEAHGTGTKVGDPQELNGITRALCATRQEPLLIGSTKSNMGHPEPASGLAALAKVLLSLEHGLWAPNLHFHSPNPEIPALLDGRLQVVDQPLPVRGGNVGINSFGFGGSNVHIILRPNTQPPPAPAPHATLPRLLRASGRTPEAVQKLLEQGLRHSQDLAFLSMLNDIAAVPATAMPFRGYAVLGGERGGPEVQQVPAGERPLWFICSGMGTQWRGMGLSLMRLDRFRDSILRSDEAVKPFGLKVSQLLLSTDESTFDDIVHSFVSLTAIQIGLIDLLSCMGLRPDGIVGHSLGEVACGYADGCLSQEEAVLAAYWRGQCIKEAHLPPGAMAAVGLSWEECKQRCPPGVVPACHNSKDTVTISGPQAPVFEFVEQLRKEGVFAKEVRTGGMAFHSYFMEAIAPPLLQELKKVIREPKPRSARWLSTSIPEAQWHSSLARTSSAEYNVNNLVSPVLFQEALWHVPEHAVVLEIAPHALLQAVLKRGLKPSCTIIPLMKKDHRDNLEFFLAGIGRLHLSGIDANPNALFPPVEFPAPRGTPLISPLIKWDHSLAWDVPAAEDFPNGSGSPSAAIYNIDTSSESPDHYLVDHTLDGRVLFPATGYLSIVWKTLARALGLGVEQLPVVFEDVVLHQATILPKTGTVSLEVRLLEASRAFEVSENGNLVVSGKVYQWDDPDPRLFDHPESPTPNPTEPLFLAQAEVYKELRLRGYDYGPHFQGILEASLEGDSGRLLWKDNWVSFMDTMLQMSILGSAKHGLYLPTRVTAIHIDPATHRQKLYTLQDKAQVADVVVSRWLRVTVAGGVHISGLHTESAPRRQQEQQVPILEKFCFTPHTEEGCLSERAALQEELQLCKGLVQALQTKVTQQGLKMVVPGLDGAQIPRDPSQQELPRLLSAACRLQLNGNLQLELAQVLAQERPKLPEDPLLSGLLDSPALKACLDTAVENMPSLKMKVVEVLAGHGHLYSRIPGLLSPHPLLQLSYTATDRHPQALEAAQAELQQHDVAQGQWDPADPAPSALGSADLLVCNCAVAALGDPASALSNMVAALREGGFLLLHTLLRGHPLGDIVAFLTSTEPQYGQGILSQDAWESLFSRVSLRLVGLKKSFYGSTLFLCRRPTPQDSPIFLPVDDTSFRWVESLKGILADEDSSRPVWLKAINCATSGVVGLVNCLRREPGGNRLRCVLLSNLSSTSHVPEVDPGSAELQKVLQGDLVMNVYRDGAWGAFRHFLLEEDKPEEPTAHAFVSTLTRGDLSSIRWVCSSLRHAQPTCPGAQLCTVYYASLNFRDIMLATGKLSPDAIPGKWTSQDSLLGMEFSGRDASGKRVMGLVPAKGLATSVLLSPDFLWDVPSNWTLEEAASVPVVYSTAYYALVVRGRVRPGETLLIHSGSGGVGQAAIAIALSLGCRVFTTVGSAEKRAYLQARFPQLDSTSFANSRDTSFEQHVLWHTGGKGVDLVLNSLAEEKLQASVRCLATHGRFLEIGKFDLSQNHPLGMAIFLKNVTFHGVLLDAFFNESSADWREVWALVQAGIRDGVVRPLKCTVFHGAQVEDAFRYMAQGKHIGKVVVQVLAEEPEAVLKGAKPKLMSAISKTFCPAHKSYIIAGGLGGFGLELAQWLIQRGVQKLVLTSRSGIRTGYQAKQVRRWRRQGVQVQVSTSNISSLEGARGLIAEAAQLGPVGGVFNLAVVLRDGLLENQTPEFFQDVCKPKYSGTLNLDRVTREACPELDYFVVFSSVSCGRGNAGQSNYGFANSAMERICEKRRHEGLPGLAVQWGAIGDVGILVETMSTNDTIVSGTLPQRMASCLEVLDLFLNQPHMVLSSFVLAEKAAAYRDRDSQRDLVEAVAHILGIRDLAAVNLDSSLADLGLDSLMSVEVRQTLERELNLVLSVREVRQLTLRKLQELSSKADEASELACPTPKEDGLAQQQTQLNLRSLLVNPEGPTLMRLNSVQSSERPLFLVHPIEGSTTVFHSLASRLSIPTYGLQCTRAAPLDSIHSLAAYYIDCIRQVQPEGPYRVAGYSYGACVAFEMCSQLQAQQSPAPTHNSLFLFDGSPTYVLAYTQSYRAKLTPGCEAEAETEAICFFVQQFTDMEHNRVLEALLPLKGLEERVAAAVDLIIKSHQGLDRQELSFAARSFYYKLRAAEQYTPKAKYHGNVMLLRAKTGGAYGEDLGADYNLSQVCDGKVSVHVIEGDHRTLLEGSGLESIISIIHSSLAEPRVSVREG
The target of assay [18] is T5, Fatty acid synthase. Kind of assay: FAS thioesterase domain inhibitors, dose response, biochemical, endpoint fluorescence intensity, uHTS hits (AID 624327).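 Note: fluorescence from hydrolysis of an O-methyl fluorescein acyl ester substrate by the enzyme.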 Type of assay: functional.
The target in assay [19] is T6, Calpain-2 catalytic subunit (Sus scrofa, UniProt P43367).
T6 sequence (P43367 whole entry): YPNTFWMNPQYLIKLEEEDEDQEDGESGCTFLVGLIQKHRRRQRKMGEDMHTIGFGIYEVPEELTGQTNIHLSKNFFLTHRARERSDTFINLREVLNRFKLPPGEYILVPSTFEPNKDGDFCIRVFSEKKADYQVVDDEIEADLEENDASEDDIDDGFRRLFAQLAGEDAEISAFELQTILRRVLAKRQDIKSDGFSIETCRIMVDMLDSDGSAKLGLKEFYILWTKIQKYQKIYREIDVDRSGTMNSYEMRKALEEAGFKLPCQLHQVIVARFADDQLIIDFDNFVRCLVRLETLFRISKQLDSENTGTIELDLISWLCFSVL
Briefly: pig calpain II inhibitor potency, dose response, biochemical, fluorogenic peptide substrate (AID 1420). It is filed as functional.

The target of assay [20] is T7, Ubiquitin-conjugating enzyme E2 N (Homo sapiens, UniProt P61088).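 Note: Dose-response confirmation in a TR-FRET assay detecting UBC13-driven polyubiquitin chain formation, inhibition measured.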
T7 sequence (P61088 whole entry): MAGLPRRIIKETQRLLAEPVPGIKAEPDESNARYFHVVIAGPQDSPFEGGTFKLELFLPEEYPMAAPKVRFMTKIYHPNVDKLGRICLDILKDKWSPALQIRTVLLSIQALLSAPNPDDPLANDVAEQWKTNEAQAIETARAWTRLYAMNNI
It is filed as functional.

Regarding `CN(C1CCCCC1)S(=O)(=O)c1ccc(NC(=S)NC(=O)c2cccs2)cc1`, the IC50 in [1] and in [2] was > 66 µM (inactive) in each case.

Consider `Cc1cc(C(=O)NC2=NCCS2)cs1`, for which the EC50 in assay [3] was > 67.5 µM (inactive).

Turning to `COc1cc2c(c(OCC(=O)NC(C)C)c1)C(=O)O[C@@H](C)CCCC(=O)CCCCC2`, the AC50 in assay [4] is 4.35 µM (active); in assay [5] it was 11.3 µM (active); in assay [6], 4.75 µM (active); in assay [7], 5.78 µM (active). The IC50 in assay [1] was 63.7 µM (inactive); in [2] it was > 66 µM (inactive).

In the case of `Cc1cc(C(=O)NC2CCCCC2)c(C)n1-c1ccc(F)cc1`, the EC50 in [3] is > 67.5 µM (inactive); in [8] it was 0.455 µM (active).

With `Nc1nc(-c2cccc(F)c2)cs1`, the IC50 in assay [1] and in assay [2] was > 66 µM (inactive) in each case.

In the case of `O=C(O)c1ccc(C=C(c2nc3ccccc3s2)c2nc3ccccc3s2)cc1`, the AC50 in [9] was 4.53 µM (active). Besides, in assay [10], the CC50 was > 25 µM (active).

Consider `CCOC(=O)N1CCC(NC(=O)c2cc3ccccn3n2)CC1`, for which the EC50 in [3] is > 67.5 µM (inactive).

On to `CN(C)S(=O)(=O)c1ccc2oc(SCC(=O)Nc3ccccc3F)nc2c1`, for which, in [11], the IC50 was 7.98 µM (active).

Take `Cc1cc(C)nc(-n2nc(C)c(Sc3ccc(F)cc3)c2N)n1`: the EC50 was 2.01 µM (active) in assay [12]; > 67.5 µM (inactive) in assay [3]; > 60 µM (not active) in assay [13]; > 150 µM (not active) in [14]; > 150 µM (not active) in assay [15]; > 150 µM (not active) in assay [16].

As to `CCN(CC(=O)Nc1ccccc1OC)C(=O)c1ccccc1Sc1ccccc1C#N`, in [11], the IC50 was > 100 µM (inactive).

As for `Cc1cc(C(=O)OCC(=O)Nc2cccc([N+](=O)[O-])c2)c(C)o1`, the IC50 in assay [17] is 17.2 µM (active); in assay [18], 9.82 µM (active).

Take `Cc1cc(C)n2c(NC3CCCC3)c(-c3cc4ccccc4o3)nc2n1`: in assay [3], the EC50 was > 67.5 µM (inactive).

Turning to `CCOc1ccc(NC(=S)NC(=O)c2cccnc2)c([N+](=O)[O-])c1`, the IC50 in assay [1] and in [2] was > 66 µM (inactive) in each case.

As to `COc1ccc(/C=N/OCC(=O)Nc2ccc3c(c2)OCO3)c(OC)c1`, the IC50 in [19] is reported as > 50 µM (not active).

With `CS(=O)(=O)c1ccc(-c2csc(-c3cccnc3)n2)cc1`, the IC50 is 7.66 µM (active) in assay [17] and 10.3 µM (active) in assay [18].

`CN(c1ccccc1)S(=O)(=O)c1cccc(C(=O)NC2CCCCC2)c1`: the IC50 in assay [1] and in assay [2] was > 66 µM (inactive) in each case.

For `Cc1cc(-c2ccncc2)n2ncc(-c3ccccc3)c2n1`, in assay [3], the EC50 was > 67.6 µM (inactive).

On to `COc1ccc2[nH]c(C(=O)Nc3cccc(C)n3)cc2c1`, for which, in assay [3], the EC50 was > 67.5 µM (inactive).

In the case of `CCN(CC(O)Cn1c2ccccc2c2ccccc21)S(=O)(=O)c1ccc(C)cc1` (configuration not stated), the IC50 in assay [19] was 2.61 µM (not active).

For `COc1ccc(C[C@H]2CN3C(=NC[C@H]3Cc3ccccc3)N2CCNC(=O)c2ccc(C)c(Br)c2)cc1`, the values for the IC50 in [20] and in assay [11] were > 20 µM (inactive) and > 100 µM (inactive), respectively.

Turning to `COCCN(C(=O)CSc1ccc2c(c1)OCCO2)c1c(N)n(CC(C)C)c(=O)[nH]c1=O`, the IC50 in assay [1] and in assay [2] was > 66 µM (inactive) in each case.

As for `C=CCN(CC=C)Cc1nc(N)nc(Nc2ccccc2C)n1`, the IC50 in assay [19] is < 0.4 µM (not active).

Take `Cc1cc(NC(=S)N(Cc2ccc(Br)cc2)Cc2ccc(C(=O)O)cc2)ccc1Cl`: in assay [19], the IC50 is 4.69 µM (not active).

As to `CCc1nnc(NS(=O)(=O)c2ccc(NC(=S)NC(=O)c3ccc(Br)cc3)cc2)s1`, the IC50 in [19] is 6.7 µM (active).

As to `Cn1c(-c2ccc(F)cc2)cnc1NCc1cccc([N+](=O)[O-])c1`, the IC50 in assay [17] is 9.83 µM (active); in [18] it was 5.28 µM (active).

For the compound `Fc1ccccc1COc1ccc(Br)cc1CNCc1ccncc1`, the IC50 in assay [19] was > 50 µM (not active).
